In patent US5204355A, “15-nitro-2β, 3β-dihydro- and 15-nitro-2β,3β,6,7-tetrahydrotabersonine derivatives, pharmaceutical compositions containing them and process for preparing same” (Richter Gedeon Vegyeszeti Gyar RT., priority 1990, dated 1993):

Assays:
[1] = system: TET-induced increase in the brain water content; test: TET-induced cerebral edema in rats (brain water content, protective effect); type: in vivo, inbred male Hannover Wistar rats; conditions: for Brain water content % ± S.E.M. / Protective effect %: 5 days TET 2.5 mg/kg; for protective action against TET-induced edema (in words): result in words
Excerpt: The inhibitory effect on the cerebral edema of the compounds of formula (I) was studied by using the method of P. Linnee et al. "L'oedeme cerebral induit chez 1e rat par le triethyletain. Interet et limites comme methode d'etude de antioedemateux cerebraux", Ann. Pharmaceutiques francaises, 42, 431 (1984)) as described hereinafter in detail.
Inbred male Hannover Wistar rats weighing 180 to 200 g were used in these examinations. Before starting and during the treatment the animals were kept on normal laboratory diet and received tap water ad libitum.
The cerebral edema was induced by the daily administration of 2.5 mg/kg of triethyl-tin chloride (abbreviated hereinafter as TET) for 5 days. TET (Merck-Schuchardt, Darmstadt, Germany) was dissolved in distilled water under stirring and the stirring was continued during the treatment, too. TET was orally administered to the animals every day at 7 o'clock a.m.
Both the reference drugs and test compounds were homogenized in a 0.5 % carboxymethylcellulose solution by using an Ultra Turrax mixer and stirring was continued also during the administration. The first dose of the reference and test compounds, respectively, was orally 5 given following the TET treatment by 1 or 6 hours, respectively. The administration was always carried out in a volume of 0.5 ml/100 g of body-weight. Each group consisted of 7 animals; the control group received only the solvent of TET (distilled water) and the vehicle used for the compounds (0.5% carboxymethylcellulose solution) in an identical volume and at the same time as described above.
The animals were decapitated on the 5th day of the treatment at 2 hours after the last treatment (with the test compound). The whole brain was rapidly removed, washed with cold 0.9 % saline, the moisture was removed by a filter paper, the brains were placed on aluminum foils previously weighed and the wet weights of the brains (together with the aluminum foil of known weight) were determined with an accuracy of one tenth mg on an electric balance (Precisa 80/A, PAG Oerlikon AG, Zurich, Switzerland).
Subsequently the brains were dried at 90° C. for 92 hours, then the gross dry weight (dry weight of the brain together with the weight of the aluminum foil) was again measured. With the knowledge of the dry and wet weights, the brain water content, i.e. the effect of treatment by the compound was calculated and expressed in the percentage of the protective effect by using the following formula: [formula] wherein (TET-Ko) means the percentage of average brain water content of the animals treated with TET and vehicle;
(TET-V) means the percentage of average brain water content of the animals treated with TET and the compound; and
(Veh-Ko) means the percentage of average brain water content of the animals treated with distilled water and vehicle.
The deviations of changes in the brain water content (and dry weight) were analyzed by the means of Student's "t" trial.

Asphyxial anoxia = test: Antihypoxic effect on mice (asphyxial anoxia); type: in vivo, male mice (CFLP LATI); conditions: for ED50: Mus musculus, po, 1 hour before, protected = survival 30 % longer than control
Experimental: The antianoxic action of the target compounds was studied by using the following test method.
ANTIHYPOXIC EFFECT ON MICE
Male mice (CFLP LATI) weighing 24 to 26 g were used in these experiments. The test compounds were orally administered in a volume of 10 ml/kg one hour before starting the experiment.
The animals were orally treated with various doses of the test compounds after starving for 16 hours. One hour following the treatment the animals were placed in air-tight glass cylinders of 100 ml volume and the survival time of the animals was measured. Each group consisted of 10 animals. Animals, surviving longer by 30 % than the average survival time of the control group treated with placebo, were considered to be protected. The ED50 value (the dose effective in 50 % of the animals) was calculated from the percentage of surviving animals by using probit analysis.

For `CC[C@]12C=CCN3CC[C@@]4(c5cc([N+](=O)[O-])ccc5N[C@H]4[C@@H](C(=O)OC)C1)[C@@H]32` [compound 1703594, methyl-15-nitro-6,7-didehydro-(2β, 5α, 12β, 19α)-aspidospermidine-(15-nitro-2β, 3β-dihydrotabersonine)], the “Brain water content % ± S.E.M.” value ([1]; Experiment 4, 50 μmol/kg oral) was 78.61%, the Protective effect % ([1]; Experiment 4, 50 μmol/kg oral) was 82.9% and the ED50 (Asphyxial anoxia) was 56.3 mg/kg.

`CC[C@]12CCCN3CC[C@]4(C(=C(C(=O)OC)C1)Nc1ccc([N+](=O)[O-])cc14)[C@@H]32` [compound 1700374, 15-nitro-6,7-dihydrotabersonine] was tested, and the ED50 (Asphyxial anoxia) was > 100 mg/kg and the “protection against cerebral hypoxia (in words)” value (Asphyxial anoxia; result in words, up to 100 mg/kg p.o.) was “did not provide any protection”.

With `CC[C@]12CCCN3CCc4c(n(c5ccccc45)[C@@](O)(C(=O)OC)C1)[C@@H]32` [vincamine, (+) -14β-hydroxy-14α-methoxycarbonyl-14, 15- -dihydroeburnamenine] the “Brain water content % ± S.E.M.” value ([1]; Experiment 1, 100 μmol/kg oral) was 78.83 ± 0.15%, the Protective effect % ([1]; Experiment 1, 100 μmol/kg oral) was 64.9% and the “Brain water content % ± S.E.M.” value ([1]; Experiment 2, 100 μmol/kg oral) was 78.70 ± 0.13%. For the same molecule, the Protective effect % ([1]; Experiment 2, 100 μmol/kg oral) was 59.6%, the “Brain water content % ± S.E.M.” value ([1]; Experiment 4, 50 μmol/kg oral) was 79.31% and the Protective effect % ([1]; Experiment 4, 50 μmol/kg oral) was 31.6%.

`CCOC(=O)[C@H]1C[C@]2(CC)CCCN3CC[C@@]4(c5cc([N+](=O)[O-])ccc5N[C@@H]14)[C@@H]32` [compound 1708009, ethyl 15-nitro-(2β, 5α, 12β, 19α)-aspidospermidine-3α-carboxylate] was tested, and the “Brain water content % ± S.E.M.” value ([1]; Experiment 3, 50 μmol/kg oral) was 79.44 ± 0.11%, the Protective effect % ([1]; Experiment 3, 50 μmol/kg oral) was 32.5% and the “protective action against TET-induced edema (in words)” value (shortened to “protective action”) [1] was “similarly effective”. For the same molecule, the ED50 (Asphyxial anoxia) was 62 mg/kg.

For `CC[C@]12CCCN3CC[C@@]4(c5cc([N+](=O)[O-])ccc5N[C@H]4[C@@H](C(=O)OC)C1)[C@@H]32` [compound 1704369, methyl 15-nitro-(2β, 5α, 12β, 19α)-aspidospermidine-3α-carboxylate], the “protection against the edema-inducing effect of TET” value ([1]; 100 μmol/kg oral, summary of experiments in text) was 100%, the “Brain water content % ± S.E.M.” value ([1]; Experiment 1, 100 μmol/kg oral) was 78.09 ± 0.09% and the Protective effect % ([1]; Experiment 1, 100 μmol/kg oral) was 103.6%. For the same molecule, the “Brain water content % ± S.E.M.” value ([1]; Experiment 2, 100 μmol/kg oral) was 78.15 ± 0.05%, the Protective effect % ([1]; Experiment 2, 100 μmol/kg oral) was 99.3% and the “Brain water content % ± S.E.M.” value ([1]; Experiment 4, 50 μmol/kg oral) was 78.30%. The Protective effect % ([1]; Experiment 4, 50 μmol/kg oral) was 105.9% and the “protective action” value [1] was “even more effective than the structurally similar vincamine”.

In the case of `COC1=C(OC)C(=O)C(CCCCCCCCCCO)=C(C)C1=O` [idebenone, 5,6-dimethoxy-2-(10-hydroxydecyl)-3-methyl-p-benzoquinone], the “Brain water content % ± S.E.M.” value ([1]; Experiment 3, 100 μmol/kg oral) was 79.75 ± 0.14%, the Protective effect % ([1]; Experiment 3, 100 μmol/kg oral) was 14.0% and the “Brain water content % ± S.E.M.” value ([1]; Experiment 6, 100 μmol/kg oral) was 80.22 ± 0.16%. For the same molecule, the Protective effect % ([1]; Experiment 6, 100 μmol/kg oral) was 16.9% and the “protective action” value [1] was “did not produce any practically useful protective action”.

For `NC(=O)CN1CCCC1=O` [piracetam, 2-oxo-1-pyrrolidineacetic acid amide], the “Brain water content % ± S.E.M.” value ([1]; Experiment 5, 100 μmol/kg oral) was 80.04 ± 0.28%.

In the case of “(5'α, 10α)-9, 10-dihydro-12'-hydroxy- 2'-methylethyl)-5'-benzylergotamine-3+, 6', 18-trione monomethanesulfonate [hydergine]”, the “Brain water content % ± S.E.M.” value ([1]; Experiment 6, 30 mg/kg oral) was 79.97 ± 0.38%, the Protective effect % ([1]; Experiment 6, 30 mg/kg oral) was 25.6% and the “protective action” value [1] was “did not produce any practically useful protective action”.
